Results on eleven compounds are retold here after patent publication US11345708B2, “Substituted imidazo[1,2-a]imidazoles as modulators of metabotropic glutamate receptor 4 activity” (Hoffmann-La Roche Inc., priority 2017, dated 2022).

T1 sequence (Q14833 33-912): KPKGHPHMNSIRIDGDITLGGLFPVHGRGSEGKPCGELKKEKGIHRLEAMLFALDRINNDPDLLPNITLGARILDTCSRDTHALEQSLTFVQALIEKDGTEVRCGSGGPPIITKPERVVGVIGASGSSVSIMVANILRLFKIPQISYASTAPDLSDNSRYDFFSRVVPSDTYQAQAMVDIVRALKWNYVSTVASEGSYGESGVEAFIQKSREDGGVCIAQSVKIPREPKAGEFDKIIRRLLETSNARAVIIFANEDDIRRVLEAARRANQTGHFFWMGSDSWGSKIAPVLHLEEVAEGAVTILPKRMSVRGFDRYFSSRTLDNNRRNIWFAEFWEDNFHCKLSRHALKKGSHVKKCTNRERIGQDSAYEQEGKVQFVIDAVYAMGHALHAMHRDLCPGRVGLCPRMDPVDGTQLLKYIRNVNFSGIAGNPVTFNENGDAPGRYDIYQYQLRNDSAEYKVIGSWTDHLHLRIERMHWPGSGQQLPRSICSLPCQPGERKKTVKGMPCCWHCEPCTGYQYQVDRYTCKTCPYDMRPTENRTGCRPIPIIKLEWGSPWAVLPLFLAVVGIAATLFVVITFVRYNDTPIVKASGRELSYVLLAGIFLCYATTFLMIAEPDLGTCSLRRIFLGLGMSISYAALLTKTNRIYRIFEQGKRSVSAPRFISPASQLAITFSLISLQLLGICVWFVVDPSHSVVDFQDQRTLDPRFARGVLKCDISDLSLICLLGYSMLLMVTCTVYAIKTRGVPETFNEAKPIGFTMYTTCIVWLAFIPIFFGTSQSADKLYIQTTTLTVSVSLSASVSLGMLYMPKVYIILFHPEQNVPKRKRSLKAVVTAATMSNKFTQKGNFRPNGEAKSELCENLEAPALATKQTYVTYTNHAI

This test concerns the target T1, human mGlu4 receptor (Homo sapiens, UniProt Q14833).
T1 construct: expressed in transfected cells; host or cells: HEK-293 (monoclonal, stably transfected)
In words: Ca2+ mobilization in vitro assay on recombinant human mGlu4 expressed in HEK293 cells. The test is classed as cell-based. The note with it: HEK-293 cells stably expressing human mGlu4; L-AP4 added at EC20; Fluo-4 fluorescence; read-out: EC50 (uM) mGlu4 PAM. Here is the method:
Determination of EC50 Values Using a Ca2+ Mobilization In Vitro Assay on Recombinant Human mGlu4 Expressed in HEK293 Cells:
A monoclonal HEK-293 cell line stably transfected with a cDNA encoding for the human mGlu4 receptor was generated; for the work with mGlu4 Positive Allosteric Modulators (PAMs), a cell line with low receptor expression levels and low constitutive receptor activity was selected to allow the differentiation of agonistic versus PAM activity. Cells were cultured according to standard protocols (Freshney, 2000) in Dulbecco's Modified Eagle Medium with high glucose supplemented with 1 mM glutamine, 10% (vol/vol) heat-inactivated bovine calf serum, Penicillin/Streptomycin, 50 μg/ml hygromycin and 15 μg/ml blasticidin (all cell culture reagents and antibiotics from Invitrogen, Basel, Switzerland).
About 24 hrs before an experiment, 5×10^4 cells/well were seeded in poly-D-lysine coated, black/clear-bottomed 96-well plates. The cells were loaded with 2.5 μM Fluo-4 AM in loading buffer (1×HBSS, 20 mM HEPES) for 1 hr at 37° C. and washed five times with loading buffer. The cells were transferred into a Functional Drug Screening System 7000 (Hamamatsu, Paris, France), and 11 half logarithmic serial dilutions of test compound at 37° C. were added and the cells were incubated for 10-30 min. with on-line recording of fluorescence. Following this pre-incubation step, the agonist (2S)-2-amino-4-phosphonobutanoic acid (L-AP4) was added to the cells at a concentration corresponding to EC20 with on-line recording of fluorescence; in order to account for day-to-day variations in the responsiveness of cells, the EC20 of L-AP4 was determined immediately ahead of each experiment by recording of a full dose-response curve of L-AP4.
Responses were measured as peak increase in fluorescence minus basal (i.e. fluorescence without addition of L-AP4), normalized to the maximal stimulatory effect obtained with saturating concentrations of L-AP4. Graphs were plotted with the % maximal stimulatory using XLfit, a curve fitting program that iteratively plots the data using Levenburg Marquardt algorithm. The single site competition analysis equation used was y=A+((B−A)/(1+((x/C)D))), where y is the % maximal stimulatory effect, A is the minimum y, B is the maximum y, C is the EC50, x is the log 10 of the concentration of the competing compound and D is the slope of the curve (the Hill Coefficient). From these curves the EC50 (drug concentration at which 50% of the maximal receptor activation was achieved), the Hill coefficient as well as the maximal response in % of the maximal stimulatory effect obtained with saturating concentrations of L-AP4 were calculated (see Fig. 1).
A depression of the signal observed after addition of the EC20 concentration of L-AP4 was indicative of an inhibitory activity of the test compound.
(Calcium flux is commonly read through the fluorescence of an indicator in the cells.)
One may read the EC50 as the concentration at which the effect is half-maximal. In the case of `Cn1ccc(-c2cnc3n2C2(CC2)C(=O)N3c2c(F)cc(-c3ccc(C(C)(F)F)cc3)cc2F)n1` [Example 25, 7′-[4-[4-(1,1-difluoroethyl)phenyl]-2,6-difluoro-phenyl]-3′-(1-methylpyrazol-3-yl)spiro[cyclopropane-1,5′-imidazo[1,2-a]imidazole]-6′-one], the EC50 was found to be 0.1 µM. `Cn1ccc(-c2cnc3n2C2(CC2)C(=O)N3c2c(F)cc(C#Cc3ccccc3)cc2F)n1` [Example 26, 1′-(2,6-difluoro-4-(phenylethynyl)phenyl)-5′-(1-methyl-1H-pyrazol-3-yl)spiro[cyclopropane-1,3′-imidazo[1,2-a]imidazol]-2′(1′H)-one]: the EC50 is 0.104 µM. As for `O=C1N(c2c(F)cc(C#Cc3ccccc3)cc2F)c2ncc(-c3cc[nH]n3)n2C12CC2` [Example 27, 3-[2,6-Difluoro-4-(2-phenylethynyl)phenyl]-6-(1H-pyrazol-3-yl)-2,3-dihydrospiro[[1,3]diazolo[1,2-a]-imidazole-1,1′-cyclopropane]-2-one], the figure is 0.121 µM; as for `O=C1N(c2c(F)cc(C#Cc3cccnc3)cc2F)c2ncc(-c3cc[nH]n3)n2C12CC2` [Example 28, 7′-[2,6-difluoro-4-[2-(3-pyridyl)ethynyl]phenyl]-3′-(1H-pyrazol-3-yl)spiro[cyclopropane-1,5′-imidazo[1,2-a]imidazole]-6′-one], 0.135 µM; as for `Cn1cc(-c2cnc3n2C2(CC2)C(=O)N3c2c(F)cc(C#Cc3ccccc3)cc2F)cn1` [Example 29, 3-[2,6-Difluoro-4-(2-phenylethynyl)phenyl]-6-(1-methyl-1H-pyrazol-4-yl)-2,3-dihydrospiro[[1,3]diazolo[1,2-a]imidazole-1,1′-cyclopropane]-2-one], 0.139 µM. As for `CC1(C)C(=O)N(c2c(F)cc(C#Cc3ccccc3)cc2F)c2ncc(-c3ccccc3)n21` [Example 31, 1-(2,6-difluoro-4-(phenylethynyl)phenyl)-3,3-dimethyl-5-phenyl-1H-imidazo[1,2-a]imidazol-2(3H)-one], the figure is 0.243 µM. As for `O=C1N(c2c(F)cc(C#Cc3ccccc3)cc2F)c2ncc(-c3ccncc3)n2C12CC2` [Example 32, 3-[2,6-Difluoro-4-(2-phenylethynyl)phenyl]-6-(pyridin-4-yl)-2,3-dihydrospiro[[1,3]diazolo[1,2-a]imidazole-1,1′-cyclopropane]-2-one], the figure is 0.156 µM. Consider `O=C1N(c2c(F)cc(C#Cc3ccccc3)cc2F)c2ncc(-c3cccnc3)n2C12CC2` [Example 33, 3-[2,6-Difluoro-4-(2-phenylethynyl)phenyl]-6-(pyridin-3-yl)-2,3-dihydrospiro[[1,3]diazolo[1,2-a]imidazole-1,1′-cyclopropane]-2-one], for which the EC50 was determined as 0.178 µM. Then `Cn1cc(-c2cnc3n2C(C)(C)C(=O)N3c2c(F)cc(C#Cc3ccccc3)cc2Cl)cn1` [Example 34, 1-(2-chloro-6-fluoro-4-(phenylethynyl)phenyl)-3,3-dimethyl-5-(1-methyl-1H-pyrazol-4-yl)-1H-imidazo[1,2-a]imidazol-2(3H)-one], with 0.195 µM. Turning to `Cn1cc(-c2cnc3n2C2(CC2)C(=O)N3c2c(F)cc(-c3ccc(C(C)(F)F)cc3)cc2F)cn1` [Example 35, 1′-(4′-(1,1-difluoroethyl)-3,5-difluoro-[1,1′-biphenyl]-4-yl)-5′-(1-methyl-1H-pyrazol-4-yl)spiro[cyclopropane-1,3′-imidazo[1,2-a]imidazol]-2′(1′H)-one], the EC50 stood at 0.227 µM.

Turning to `Cn1ccc(-c2cnc3n2C(C)(C)C(=O)N3c2c(F)cc(C#Cc3ccccc3)cc2Cl)n1` [Example 36, 1-(2-chloro-6-fluoro-4-(phenylethynyl)phenyl)-3,3-dimethyl-5-(1-methyl-1H-pyrazol-3-yl)-1H-imidazo[1,2-a]imidazol-2(3H)-one], the EC50 was determined as 0.252 µM.
